From patent US20120225909A1, “INDAZOLE ANALOG” (priority 2009, published 2012)

Legend:
Format in all cases: cell-based
[1] = target: T1, human β1-adrenergic receptor (Homo sapiens, UniProt P08588); assay: Test Case 2-C: human β1-adrenergic receptor agonist activity (Cerep cellular functional GPCR, beta 1); details: concentration 10 μM, isoproterenol = 100%
T1 construct: expressed in transfected cells; host or cells: CHO (Chinese hamster ovary) cells, pcDNA3
Source text: Measurement of Human β1-Adrenergic Receptor Agonist Activity

[2] = target: T2, human β2-adrenergic receptor (Homo sapiens, UniProt P07550); assay: Test Case 3-C: human β2-adrenergic receptor agonist activity (Cerep cellular functional GPCR, beta 2); details: concentration 10 μM, isoproterenol = 100%
T2 construct: expressed in transfected cells; host or cells: CHO (Chinese hamster ovary) cells, pcDNA3
T2 sequence (P07550 whole entry): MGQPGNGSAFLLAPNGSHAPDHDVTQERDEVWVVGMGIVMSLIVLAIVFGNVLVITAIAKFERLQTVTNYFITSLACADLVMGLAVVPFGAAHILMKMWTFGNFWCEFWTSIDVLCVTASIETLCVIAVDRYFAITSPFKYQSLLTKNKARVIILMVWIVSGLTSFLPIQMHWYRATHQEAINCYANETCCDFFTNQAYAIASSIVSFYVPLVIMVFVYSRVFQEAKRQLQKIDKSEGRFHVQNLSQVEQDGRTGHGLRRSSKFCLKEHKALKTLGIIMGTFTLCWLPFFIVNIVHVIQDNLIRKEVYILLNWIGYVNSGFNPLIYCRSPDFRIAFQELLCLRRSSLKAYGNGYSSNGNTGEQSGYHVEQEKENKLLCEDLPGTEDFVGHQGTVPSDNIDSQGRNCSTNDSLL
Source text: Measurement of Human β2-Adrenergic Receptor Agonist Activity

[3] = target: T3, human α1A-adrenergic receptor (Homo sapiens, UniProt P35348); assay: Test Case 4-B: human α1A-adrenergic receptor agonist activity (Cerep cellular functional GPCR, alpha 1A); set-up: expressed in transfected cells; details: concentration 10 μM; for α1 receptor % of Control Agonist Response, Control; Epinephrine: epinephrine = 100%; for α1 receptor % of Control Agonist Response, Control; Norepinephrine: norepinephrine = 100%
T3 sequence (P35348 1-466): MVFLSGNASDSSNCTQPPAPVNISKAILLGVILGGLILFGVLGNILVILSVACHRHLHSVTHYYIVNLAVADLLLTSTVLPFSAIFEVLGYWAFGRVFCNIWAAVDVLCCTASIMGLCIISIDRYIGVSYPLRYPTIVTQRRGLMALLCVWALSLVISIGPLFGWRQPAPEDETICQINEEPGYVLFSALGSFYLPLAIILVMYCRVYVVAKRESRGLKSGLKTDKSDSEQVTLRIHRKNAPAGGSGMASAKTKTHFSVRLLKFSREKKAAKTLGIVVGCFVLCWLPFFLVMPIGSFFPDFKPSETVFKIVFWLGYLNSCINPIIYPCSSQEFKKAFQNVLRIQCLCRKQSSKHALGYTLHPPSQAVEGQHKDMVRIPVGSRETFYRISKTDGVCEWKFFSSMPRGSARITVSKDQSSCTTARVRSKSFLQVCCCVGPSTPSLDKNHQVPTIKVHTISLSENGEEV
Source text: Measurement of Human α1A-Adrenergic Receptor Agonist Activity
The human α1A-adrenergic receptor agonist activity] can be measured by […] Functional GPCR·Gs, alpha 1A (Ref. 722-36a) listed on p. 52 of the Cerep 2008 CATALOG IN VITRO PHARMACOLOGY & ADME-TOX.

[4] = target: T4, human β3-adrenergic receptor (Homo sapiens, UniProt P13945); assay: Test Case 1-B: human β3-adrenergic receptor agonist activity (cAMP-Screen, 96-well); details: for EC50: CHO cells, cAMP; for Emax: 0.5 h, read-out: β3 receptor I.A.
T4 construct: A full-length human β3 gene is obtained from a human genomic library (made by Clontech) using this as the probe; expressed in transfected cells; host or cells: CHO (Chinese hamster ovary) cells, pcDNA3
T4 sequence (P13945 whole entry): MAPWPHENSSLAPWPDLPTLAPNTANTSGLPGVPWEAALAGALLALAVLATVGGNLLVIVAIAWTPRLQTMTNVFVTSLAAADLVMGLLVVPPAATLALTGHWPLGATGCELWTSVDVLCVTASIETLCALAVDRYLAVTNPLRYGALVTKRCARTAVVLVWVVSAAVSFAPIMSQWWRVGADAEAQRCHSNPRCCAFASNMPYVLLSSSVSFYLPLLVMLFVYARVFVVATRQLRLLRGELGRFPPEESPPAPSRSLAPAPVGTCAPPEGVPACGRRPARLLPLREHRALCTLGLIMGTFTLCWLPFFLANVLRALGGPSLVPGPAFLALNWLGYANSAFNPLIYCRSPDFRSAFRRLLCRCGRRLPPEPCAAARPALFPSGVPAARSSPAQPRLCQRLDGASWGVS
Procedure, shortened: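 CHO cells stably transfected with full-length human β3 gene, serum-starved 15 min, then exposed to serially diluted compound in Ham's F-12 with 100 mmol/L HEPES and 1 mmol/L IBMX (diluent concentrations) for 30 min. Cells lysed 30 min at 37 °C; cAMP quantified by cAMP-Screen immunoassay.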

[5] = target: T3, human α1A-adrenergic receptor; assay: Test Case 4-A: human α1A-adrenergic receptor agonist activity (HEK293, Ca flux, Fura-2); set-up: expressed in transfected cells; host or cells: HEK293 cells, pcDNA3.1; details: HEK293; read-out: α1A receptor I.A.
Procedure, shortened: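 Fura-2AM-loaded HEK293 cells transfected with human α1A were preincubated for 180 s. Compound (sample plate 10^−5 to 10^−12 M) was added after ~30 s of 340/380 nm excitation ratio reading (500 nm emission, 2-s intervals), followed by 270 s more reading. Ca flux is the peak height: maximum ratio after addition minus the pre-addition ratio.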

T1 sequence (P08588 whole entry): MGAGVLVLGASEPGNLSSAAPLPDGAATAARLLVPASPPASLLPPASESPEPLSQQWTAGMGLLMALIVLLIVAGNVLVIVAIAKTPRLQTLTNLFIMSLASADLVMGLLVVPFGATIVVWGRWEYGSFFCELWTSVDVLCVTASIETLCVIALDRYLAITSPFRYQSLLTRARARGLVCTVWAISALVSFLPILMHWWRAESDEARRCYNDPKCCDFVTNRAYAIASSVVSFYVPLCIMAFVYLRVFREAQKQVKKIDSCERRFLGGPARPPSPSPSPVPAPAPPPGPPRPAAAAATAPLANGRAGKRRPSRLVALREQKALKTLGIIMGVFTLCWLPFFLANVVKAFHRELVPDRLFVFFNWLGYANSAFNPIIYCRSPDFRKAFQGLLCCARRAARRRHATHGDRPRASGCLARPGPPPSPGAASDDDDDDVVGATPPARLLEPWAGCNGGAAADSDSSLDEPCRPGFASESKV

Row | Compound | β1 receptor % of Control Agonist Response [1] [%] | β2 receptor % of Control Agonist Response [2] [%] | α1 receptor % of Control Agonist Response, Control; Epinephrine [3] [%] | α1 receptor % of Control Agonist Response, Control; Norepinephrine [3] [%] | EC50 ([4]; Test Case 1-B) [µM] | β3 receptor I.A. ([4]; Test Case 1-B, maximum response of isoproterenol = 100%) [%] | Emax [4] [%] | Emax [5] [%]
1 | Cc1n[nH]c2cc(OCCNC[C@H](O)c3cccc(NS(=O)(=O)c4cccnc4F)c3)ccc12 [ex86] | 8.8 | −0.7 | −0.4 | −0.3 | 0.401 | 80 |  | 
2 | O=S(=O)(Nc1cccc([C@@H](O)CNCCOc2ccc3c(Cl)n[nH]c3c2)c1)c1ccccc1F [ex158, (R)-N-(3-(2-(2-(3-chloroindazol-6-yloxy)ethylamino)-1-hydroxyethyl)phenyl)-2-fluorobenzene-sulfonamide] | 17 | 1.6 | 7.8 | 6.7 | 0.062 |  | 90 | 0
3 | Nc1cccc(S(=O)(=O)Nc2cccc([C@@H](O)CNCCOc3ccc4c(C5CC5)n[nH]c4c3)c2)c1F [ex215, (R)-3-amino-N-(3-(2-(2-(3-cyclopropyl-indazol-6-yloxy)ethyl-amino)-1-hydroxy-ethyl)phenyl)-2-fluorobenzene-sulfonamide] | 23 | 0.5 | 0.1 | 0.1 |  |  |  | 
4 | CCc1n[nH]c2cc(OCCNC[C@H](O)c3cccc(NS(=O)(=O)c4ccccc4F)c3)ccc12 [ex128, (R)-N-(3-(2-(2-(3-ethylindazol-6-yloxy)ethylamino)-1-hydroxyethyl)phenyl)-2-fluorobenzene-sulfonamide] | 10 | 0.3 | 16 | 14 |  |  |  | 
5 | Cc1n[nH]c2cc(OCCNC[C@H](O)c3cccc(NS(=O)(=O)c4ccc(F)c(N)c4)c3)ccc12 [ex58, (R)-3-amino-4-fluoro-N-(3-(1-hydroxy-2-(2-(3-methylindazol-6-yloxy)ethylamino)ethyl)phenyl) benzenesulfonamide] | 18 | 1.8 | 0.6 | 0.5 |  |  |  | 
6 | COc1n[nH]c2cc(OCCNC[C@H](O)c3cccc(NS(=O)(=O)c4cn[nH]c4)c3)ccc12 [ex23, (R)-N-( ? -(1-hydroxy-2-(2-(3-methoxyindazol-6-yloxy)ethylamino)ethyl)phenyl)pyrazole-4-sulfonamide] | 2.1 | 0.5 | 32 | 27 |  |  |  | 
7 | O=S(=O)(Nc1cccc([C@@H](O)CNCCOc2ccc3c(Cl)n[nH]c3c2)c1)c1cn[nH]c1 [ex167, (R)-N-(3-(2-(2-(3-chloroindazol-6-yloxy)ethylamino)-1-hydroxyethyl)phenyl)pyrazole-4-sulfonamide] | 6.4 | 0.3 | 26 | 22 |  |  |  | 
8 | Cc1n[nH]c2cc(OCCNC[C@H](O)c3cccc(NS(=O)(=O)c4ccc(Cl)c(N)c4)c3)ccc12 [ex7, (R)-3-amino-4-chloro-N-(3-(1-hydroxy-2-(2-(3-methylindazol-6-yloxy)ethylamino)ethyl)phenyl)benzenesulfonamide] | 15 | 3.7 | 25 | 21 |  |  |  | 
9 | Cc1n[nH]c2cc(OCCNC[C@H](O)c3cccc(NS(=O)(=O)c4cc(F)ccc4F)c3)ccc12 [ex72, (R)-2, ? -difluoro-N-(3-(1-hydroxy-2-(2-(3-methylindazol-6-yloxy)ethylamino)ethyl)phenyl) benzenesulfonamide] | 19 | 1.8 | 6.8 | 5.9 | 0.0083 |  | 92 | 1
10 | Nc1ccc(F)c(S(=O)(=O)Nc2cccc([C@@H](O)CNCCOc3ccc4c(OC(F)F)n[nH]c4c3)c2)c1 [ex106] | 11 | 2.1 | −0.2 | −0.2 |  |  |  | 
11 | CCc1n[nH]c2cc(OCCNC[C@H](O)c3cccc(NS(=O)(=O)c4cc(N)ccc4F)c3)ccc12 [ex148, (R)-5-amino-N-(3-(2-(2-(3-ethylindazol-6-yloxy)-ethylamino)-1-hydroxyethyl)phenyl)-2-fluorobenzene-sulfonamide] | 15 | 0.8 | −0.2 | −0.2 |  |  |  | 
12 | O=S(=O)(Nc1cccc([C@@H](O)CNCCOc2ccc3c(OC(F)F)n[nH]c3c2)c1)c1ccccc1F [ex107, (R)-N-(3-(2-(2-(3-(difluoromethoxy)-indazol-6-yloxy)ethylamino)-1-hydroxyethyl)phenyl)-2-fluorobenzene-sulfonamide] | 8.7 | −0.6 | 17 | 14 | 0.101 |  | 75 | 1
13 | COc1n[nH]c2cc(OCCNC[C@H](O)c3cccc(NS(=O)(=O)c4cccnc4F)c3)ccc12 [ex24, (R)-2-fluoro-N-(3-(1-hydroxy-2-(2-(3-methoxyindazol-6-yloxy)ethylamino)ethyl)phenyl)pyridine-3-sulfonamide] | 6.1 | 1.2 | 5.6 | 4.8 |  |  | 41 | 
14 | O=S(=O)(Nc1cccc([C@@H](O)CNCCOc2ccc3c(Cl)n[nH]c3c2)c1)c1ccsc1 [ex157, (R)-N-(3-(2-(2-(3-chloroindazol-6-yloxy)ethylamino)-1-hydroxyethyl)phenyl)thiophene-3-sulfonamide] | 7.0 | 3.2 | 8.1 | 7.0 |  |  |  | 
15 | O=S(=O)(Nc1cccc([C@@H](O)CNCCOc2ccc3c(C(F)(F)F)n[nH]c3c2)c1)c1cn[nH]c1 [ex198, (R)-N-(3-(1-hydroxy-2-(2-(3-(trifluoromethyl)-indazol-6-yloxy)ethylamino)ethyl)phenyl)-pyrazole-4-sulfonamide] | 3.5 | −0.5 | 19 | 17 |  |  |  | 
16 | Nc1ccc(F)c(S(=O)(=O)Nc2cccc([C@@H](O)CNCCOc3ccc4c(C(F)(F)F)n[nH]c4c3)c2)c1 [ex185, (R)-5-amimo-2-fluoro-N-(3-(1-hydroxy-2-(2-(3-(trifluoro-methyl)-indazol-6-yloxy)ethylamino)ethyl)phenyl)ben-zenesulfonamide] | 13 | 0.3 | 6.4 | 6 |  |  |  | 
